In patent US10590153B2, “Process for producing crystalline DTPMP” (Zschimmer & Schwarz Mohsdorf GmbH & Co. KG, priority 2014, dated 2020):
Values belong to the molecule of their own block, whether it stands above or below them.

Experiment: Drying behaviour of crystallisates in dependence on residual moisture and product purity (tempering in sealed vials, visual points classification)
Assay type: physicochemical
Parameters: key: 5 points=sample unchanged; 4 points=sample compacted/started to dissolve; 3 points=sample visibly started to dissolve; 2 points=sample cloudy highly viscous solution; 1 point=sample dissolved to clear solution
Details: sealed vial, shaken
Experimental: This dependency is shown by the following example for determining the drying behaviour of crystallisates in dependence on residual moisture and product purity.
A DTPMP solid isolated by recrystallisation is characterised by residues of adhering mother liquor via the quality parameters listed in the following table. Determination of the residual moisture content by means of a halogen dryer HB 43 S/Mettler Toledo is carried out isothermally at the indicated temperature using the shutoff criterion 4 (AK4=mean weight loss is <1 mg per 90 seconds):
After a purification step, which consists in suspending the solid in water and then separating it off by means of a filtering centrifuge, the following quality criteria are obtained:
The adhering residual moisture is removed stepwise from these solid samples in a rotary evaporator at 40° C. and 5 mbar vacuum, so that a series of samples with decreasing residual moisture content is prepared from each of the two purity grades (unwashed and washed).
4 ml borosilicate vials are filled with this sample material and the filling level is adjusted to ⅔ of the height of the glass by gentle tapping. In order to minimise evaporative losses, the screw cap of each vial is additionally sealed with a polyethylene film. All the samples are shaken in parallel in a tempering block on a heating and cooling shaker ThermoTwister comfort/Quantifoil Instruments GmbH for a defined period at a defined temperature and then assessed visually. Classification is made according to the following points system: […]

[1] = Temperature 35 °C, test duration 24 h
[2] = Temperature 40 °C, test duration 24 h
[3] = Temperature 45 °C, test duration 24 h
[4] = Temperature 50 °C, test duration 24 h
[5] = Temperature 55 °C, test duration 24 h
[6] = Temperature 60 °C, test duration 24 h
[7] = Temperature 65 °C, test duration 5 h
[8] = Temperature 70 °C, test duration 5 h
[9] = Temperature 75 °C, test duration 5 h
[10] = Temperature 80 °C, test duration 5 h
[11] = Temperature 85 °C, test duration 5 h
[12] = Temperature 90 °C, test duration 5 h

SMILES: O=P(O)(O)CN(CCN(CP(=O)(O)O)CP(=O)(O)O)CCN(CP(=O)(O)O)CP(=O)(O)O [unwashed quality 47 [% by mass] residual moisture]
Visual classification at the end of the tempering step (points system) [1]: 5
Visual classification at the end of the tempering step (points system) [2]: 5
Visual classification at the end of the tempering step (points system) [3]: 5
Visual classification at the end of the tempering step (points system) [4]: 5
Visual classification at the end of the tempering step (points system) [5]: 5
Visual classification at the end of the tempering step (points system) [6]: 3
Visual classification at the end of the tempering step (points system) [7]: 1
Visual classification at the end of the tempering step (points system) [8]: 1
Visual classification at the end of the tempering step (points system) [9]: 1
Visual classification at the end of the tempering step (points system) [10]: 1
Visual classification at the end of the tempering step (points system) [11]: 1
Visual classification at the end of the tempering step (points system) [12]: 1

SMILES: O=P(O)(O)CN(CCN(CP(=O)(O)O)CP(=O)(O)O)CCN(CP(=O)(O)O)CP(=O)(O)O [unwashed quality 24 [% by mass] residual moisture]
Visual classification at the end of the tempering step (points system) [1]: 5
Visual classification at the end of the tempering step (points system) [2]: 5
Visual classification at the end of the tempering step (points system) [3]: 5
Visual classification at the end of the tempering step (points system) [4]: 4
Visual classification at the end of the tempering step (points system) [5]: 4
Visual classification at the end of the tempering step (points system) [6]: 3
Visual classification at the end of the tempering step (points system) [7]: 2
Visual classification at the end of the tempering step (points system) [8]: 1
Visual classification at the end of the tempering step (points system) [9]: 1
Visual classification at the end of the tempering step (points system) [10]: 1
Visual classification at the end of the tempering step (points system) [11]: 1
Visual classification at the end of the tempering step (points system) [12]: 1

SMILES: O=P(O)(O)CN(CCN(CP(=O)(O)O)CP(=O)(O)O)CCN(CP(=O)(O)O)CP(=O)(O)O [unwashed quality 19 [% by mass] residual moisture]
Visual classification at the end of the tempering step (points system) [1]: 5
Visual classification at the end of the tempering step (points system) [2]: 5
Visual classification at the end of the tempering step (points system) [3]: 5
Visual classification at the end of the tempering step (points system) [4]: 5
Visual classification at the end of the tempering step (points system) [5]: 5
Visual classification at the end of the tempering step (points system) [6]: 4
Visual classification at the end of the tempering step (points system) [7]: 2
Visual classification at the end of the tempering step (points system) [8]: 2
Visual classification at the end of the tempering step (points system) [9]: 2
Visual classification at the end of the tempering step (points system) [10]: 2
Visual classification at the end of the tempering step (points system) [11]: 2
Visual classification at the end of the tempering step (points system) [12]: 2

SMILES: O=P(O)(O)CN(CCN(CP(=O)(O)O)CP(=O)(O)O)CCN(CP(=O)(O)O)CP(=O)(O)O [washed quality 53 [% by mass] residual moisture]
Visual classification at the end of the tempering step (points system) [1]: 5
Visual classification at the end of the tempering step (points system) [10]: 1
Visual classification at the end of the tempering step (points system) [11]: 1
Visual classification at the end of the tempering step (points system) [12]: 1

Results, then the molecule that gave them:

Visual classification at the end of the tempering step (points system) [1]: 5
Visual classification at the end of the tempering step (points system) [2]: 5
Visual classification at the end of the tempering step (points system) [3]: 5
Visual classification at the end of the tempering step (points system) [4]: 5
Visual classification at the end of the tempering step (points system) [5]: 5
Visual classification at the end of the tempering step (points system) [6]: 2
Visual classification at the end of the tempering step (points system) [7]: 1
Visual classification at the end of the tempering step (points system) [8]: 1
Visual classification at the end of the tempering step (points system) [9]: 1
Visual classification at the end of the tempering step (points system) [10]: 1
Visual classification at the end of the tempering step (points system) [11]: 1
Visual classification at the end of the tempering step (points system) [12]: 1
SMILES: O=P(O)(O)CN(CCN(CP(=O)(O)O)CP(=O)(O)O)CCN(CP(=O)(O)O)CP(=O)(O)O [unwashed quality 51 [% by mass] residual moisture]

Visual classification at the end of the tempering step (points system) [1]: 5
Visual classification at the end of the tempering step (points system) [2]: 5
Visual classification at the end of the tempering step (points system) [3]: 5
Visual classification at the end of the tempering step (points system) [4]: 5
Visual classification at the end of the tempering step (points system) [5]: 4
Visual classification at the end of the tempering step (points system) [6]: 3
Visual classification at the end of the tempering step (points system) [7]: 1
Visual classification at the end of the tempering step (points system) [8]: 1
Visual classification at the end of the tempering step (points system) [9]: 1
Visual classification at the end of the tempering step (points system) [10]: 1
Visual classification at the end of the tempering step (points system) [11]: 1
Visual classification at the end of the tempering step (points system) [12]: 1
SMILES: O=P(O)(O)CN(CCN(CP(=O)(O)O)CP(=O)(O)O)CCN(CP(=O)(O)O)CP(=O)(O)O [unwashed quality 31 [% by mass] residual moisture]

Visual classification at the end of the tempering step (points system) [1]: 5
Visual classification at the end of the tempering step (points system) [2]: 5
Visual classification at the end of the tempering step (points system) [3]: 5
Visual classification at the end of the tempering step (points system) [4]: 5
Visual classification at the end of the tempering step (points system) [5]: 5
Visual classification at the end of the tempering step (points system) [6]: 3
Visual classification at the end of the tempering step (points system) [7]: 1
Visual classification at the end of the tempering step (points system) [8]: 1
Visual classification at the end of the tempering step (points system) [9]: 1
Visual classification at the end of the tempering step (points system) [10]: 1
Visual classification at the end of the tempering step (points system) [11]: 1
Visual classification at the end of the tempering step (points system) [12]: 1
SMILES: O=P(O)(O)CN(CCN(CP(=O)(O)O)CP(=O)(O)O)CCN(CP(=O)(O)O)CP(=O)(O)O [unwashed quality 36 [% by mass] residual moisture]

Visual classification at the end of the tempering step (points system) [1]: 5
Visual classification at the end of the tempering step (points system) [2]: 5
Visual classification at the end of the tempering step (points system) [3]: 5
Visual classification at the end of the tempering step (points system) [4]: 5
Visual classification at the end of the tempering step (points system) [5]: 5
Visual classification at the end of the tempering step (points system) [6]: 3
Visual classification at the end of the tempering step (points system) [7]: 1
Visual classification at the end of the tempering step (points system) [8]: 1
Visual classification at the end of the tempering step (points system) [9]: 1
Visual classification at the end of the tempering step (points system) [10]: 1
Visual classification at the end of the tempering step (points system) [11]: 1
Visual classification at the end of the tempering step (points system) [12]: 1
SMILES: O=P(O)(O)CN(CCN(CP(=O)(O)O)CP(=O)(O)O)CCN(CP(=O)(O)O)CP(=O)(O)O [unwashed quality 40 [% by mass] residual moisture]

Visual classification at the end of the tempering step (points system) [1]: 5
Visual classification at the end of the tempering step (points system) [2]: 5
Visual classification at the end of the tempering step (points system) [3]: 5
Visual classification at the end of the tempering step (points system) [4]: 5
Visual classification at the end of the tempering step (points system) [5]: 5
Visual classification at the end of the tempering step (points system) [6]: 5
Visual classification at the end of the tempering step (points system) [7]: 5
Visual classification at the end of the tempering step (points system) [8]: 5
Visual classification at the end of the tempering step (points system) [9]: 5
Visual classification at the end of the tempering step (points system) [10]: 5
Visual classification at the end of the tempering step (points system) [11]: 5
Visual classification at the end of the tempering step (points system) [12]: 5
SMILES: O=P(O)(O)CN(CCN(CP(=O)(O)O)CP(=O)(O)O)CCN(CP(=O)(O)O)CP(=O)(O)O [washed quality 11 [% by mass] residual moisture]
